The values below come from patent US3987055A, “Azasteroids compounds and derivatives” (The Board of Regents for the Oklahoma Agricultural & …, priority 1974, dated 1976).

Several values for one entry are separate records, joined by “and”; a condition that tells them apart may be missing. Equal entries are not always repeated.

Data set [1] is described as follows: effects on testis function: body, testis and seminal vesicle weight. Conditions: average; 0.2 mg per day s.c., 10 days. The format is in vivo, mice (ICR-Swiss adult male). How it is done:
The compounds as shown in Table 7 were dissolved in a minimal amount of ethanol and diluted in sesame oil (1 mg/ml). After dilution, samples were stored at 5° C in the dark and flushed with N2 every 24 hours. The compounds were injected subcutaneously into adult male mice for a period of 10 days. Each mouse injected received a total dose of 2 mg over the 10 day period or 0.2 mg per day. The mice were random bred males of the ICR-Swiss strain and were used in the study when they reached 75±2 days of age. Mice were maintained in air-conditioned and light-controlled (14 hour light/24 hour) animal quarters and provided with lab food and water ad libitum. Animals were necropsied 24 hours after the last injection. Testes and seminal vesicles were excised, trimmed of adhering tissue and weighed fresh at the nearest one-tenth milligram.

For data set [2], the system named is rat testis tubules. The experiment in a line: glucose oxidation (glucose-U-14C) by rat testis tubules in vitro. Format: cell-based. Particulars: for AVERAGE glucose oxidation: average of flasks; for depression of glucose oxidation in vitro: in words; for GLUCOSE OXIDATION per 100 mg / GLUCOSE OXIDATION per flask: individual flask, 250 mg per flask (so in the source), 2 hours, 33° C; for % DEVIATION FROM CONTROL, glucose oxidation: versus saline, 120 min. How it is done:
(§1) For these investigations the compounds were diluted in a minimal amount of ethanol and further diluted in saline (0.85%) so that the final concentration was 1 mg/ml. The compounds were placed in solution and gassed under N2 and stored at 5° C until used 2 days later for the in vitro incubation studies. Details of the in vitro incubation procedures may be found in Endocrinology 89:791-800 (1971).
The effects of these compounds on glucose oxidation by testis tubules was examined by incubating about 200 mg of teased testis tubules from mature rats in a 25 ml Erlenmeyer flask containing 3 ml of Krebs Ringer bicarbonate buffer (pH 7.4), D-glucose-U-^14 C (0.5 μCi; 10mM) and 0.25 ml of the azasteroid (1 mg/ml) to be tested. The flasks were incubated for 2 hours at 33° C under 95% O2 :5% CO2. The reaction was terminated by adding 0.25 ml of 5 N H2 SO4. Carbon dioxide was trapped in 0.25 ml of hydroxide of Hyamine. The radioactivity present in the Hyamine was determined by liquid scintillation spectrometry. This table includes a detailed summary of the results obtained and an average for each compound. […] Thus, the compounds have potential for antifertility activity in the control of wild rodent populations and possibly stray animals such as dogs and cats.
CPM = counts per minute. Glucose-U-^14 C activity was 0.5 millicurie.
All compounds were tested in a concentration of 250 mg per flask.

The test system of data set [3] is rat testis tubules. In words: lysine-U-14C incorporation into protein by rat testis tubules in vitro. Format: cell-based. Particulars: for AVERAGE OF TWO FLASK lysine incorporation: average of two flasks; for protein synthesis by teased testis tubules: in words; for lysine incorporation into protein per 100 mg / lysine incorporation into protein per flask: individual flask, 250 mg per flask (so in the source), 1 hour, 33° C. The method, then:
as §1
The effects of the compounds on the incorporation of lysine -U-^14 C into trichloroacetic (TCA) precipitable protein of rat testes was investigated by incubating about 200 mg of teased testis tubules from mature rats in a 25 ml Erlenmeyer flask containing 3 ml of Krebs Ringer bicarbonate buffer (pH 7.4), L-lysine-U-^14 C (0.5 μCi; 0.1mM), glucose (10 mM) and 0.25 ml of the azasteroid to be tested. The flasks were incubated for 1 hour at 33° C under 95% O2 : 5% CO2 and the TCA precipitable protein was isolated and an aliquot used to measure radioactivity.
CPM = counts per minute. All compounds were tested in a concentration of […]

For data set [4], the system named is L-M cells. In words: growth inhibition of mouse L-M cell line. Format: cell-based. The method, then: Cells (1 × 10^5 /ml) were added to the "incubated" compound-containing medium.
Data set [5] has as its system KB cells. In words: growth inhibition of human tumor KB cell line. The format is cell-based. Particulars: 10 μg/ml or greater, read-out: concentration at which growth was inhibited. How it is done:
For example, growth of both the human tumor KB* and the mouse L-M** cell lines was inhibited when the cells were grown in media containing 10 μg/ml or greater

In data set [6] the test system is KB cells. The experiment in a line: relative plating efficiency of KB cells (colony formation, 7 days). Format: cell-based, human. How it is done: The KB cells were plated in plastic tissue culture dishes and grown in a 5% CO2 gas phase incubator for 7 days. The medium was removed, the plates washed with Hanks' salt solution and the cells stained with a 0.5% aqueous crystal violet solution, rinsed and dried. The colonies were counted and the relative plating efficiency calculated using the number of control colonies as 100 percent.

For data set [7], the system named is Cells (1 × 10^5 /ml). The experiment in a line: potency after pre-incubation of compound in growth medium without cells. The format is cell-based. Conditions: 4 days. The method, then: To ascertain if the potency of compound 5d was reduced during the incubation in the growth medium in the absence of cells, compound 5d (20 μg/ml) was added to the medium and incubated at 37° C on a shaker for 4 days. Cells (1 × 10^5 /ml) were added to the "incubated" compound-containing medium. The inhibition pattern obtained from the "incubated" medium was identical to that obtained when compound 5d (20 μg/ml) was added simultaneously with the inoculation. […] Since the compounds are not inactivated by serum, their effectiveness for animal use or human tests is enhanced. This fact is stressed in animal studies recited in Example IX below.

The subject of data set [8] is acid phosphatase, KB and L-M cells. In words: relative acid phosphatase staining (permeability of lysosomal membrane) of KB and L-M cells. Conditions: 20 μg/ml. Format: cell-based, human (KB) and mouse (L-M). Set-up: key to Relative acid phosphatase staining: light: cells showing only a few scattered granules; medium: more dense but distinct isolated granules were still detected; heavy: a more intense staining with fewer discrete granules. How it is done:
KB and L-M cells were grown on coverslips in medium 199 with 10% calf serum for the 24 hour growth prior to staining in the presence or absence of compound 5c (20 μg/ml) or compound 5d (20 μg/ml). The cells were washed in Hanks' salt solution, incubated at 37° C in Gomori's substrate solution for 1, 2, or 3 hours, washed, treated with a 1% solution of ammonium sulfide, washed, mounted and observed microscopically. Light staining was designated as cells showing only a few scattered granules; medium staining was more dense but distinct isolated granules were still detected; and heavy staining a more intense staining with fewer discrete granules. Heavy staining denotes increased phosphatase activity.
The acid phosphatase activity was measured in KB and L-M cells grown in medium in the presence or absence compound 5c or 5d (20 μg/ml) for 2 or 24 hours prior to staining (Table 2). Quantitative evaluation of the relative staining intensity of the lysosomes was compared in the treated and untreated cells. […] Thus, cells grown in the presence of compound 5c accumulate the phosphatase substrate within the lysosomes much more rapidly than the control or compound 5d treated cells indicating the compounds ability to alter membrane permeability and thus regulate the accumulation of essential metabolites. Control of this cellular capacity permits regulation of cell division so important in cancer chemotherapy. Since the permeation of the substrate is the rate-limiting step in the phosphatase determination, compound 5c produces a modification of the lysosomal membrane which increased the permeability of the lysosome to the substrate. The results also emphasize the difference in biological activity of compound 5c and 5d type molecules which chemically are similar except at C-3. Differences in the biological activity have been observed when the compounds were tested using various bacteria.

The test system of data set [9] is B. subtilis W23. The experiment in a line: antimicrobial activity in combination with selected antibiotics. Conditions: alone; B. subtilis W23. Format: cell-based. The method, then:
Several antibiotics act at the cell surface. The antimicrobial activity of the hydroxybenzindazole in combination with selected antibiotics was measured.
Both Polymyxin (Pfizer, Inc.) and Circulin (Upjohn Co.) are surface active compounds thought to cause disorganization of the cell membrane leading to a loss of intracellular components. The enhanced antimicrobial activity observed with the combination of hydroxybenzindazole and antibiotics denotes a more pronounced distortion in the cell surface. Thus, much lower concentrations of the compounds can be used in medicinal applications providing an opportunity for toxic compounds to have greater medicinal applicability and use.
Failure of the mixture of hydroxybenzindazole and chloramphenicol to show an enhanced inhibition of growth could be correlated with the internal site of action of chloramphenicol, which is blockage of the binding of the 30s and 50s ribosomal subunits.

On to `CC12CCc3cc(O)ccc3C1=NNC2=O` (racemic) [Compound 4c], for which, in data set [1], the “Body Weight” value is 35.7 g, the “Mg Testes Per g Body Wt.” value is on record as 7.28 Mg per g, the “Seminal Vesicle weight” value is listed as 82.1 mg and the “Testes Paired weight” value was found to be 261.0 mg. In [2], the AVERAGE glucose oxidation is 8,705 CPM/100 mg TISSUE; the “depression of glucose oxidation in vitro” value was “comparable to saline”; the “GLUCOSE OXIDATION per 100 mg” value was 8,847 CPM/100 mg and 8,564 CPM/100 mg; the “GLUCOSE OXIDATION per flask” value is 17,350 CPM/FLASK and 17,325 CPM/FLASK. Also, the “% DEVIATION FROM CONTROL, glucose oxidation” value in data set [2] is given as -19.94%. In addition, in data set [3], the “AVERAGE OF TWO FLASK lysine incorporation” value was 1,389 CPM/100 mg tissue; the “protein synthesis by teased testis tubules” value (shortened to “protein synthesis”) is given as “depress protein synthesis”; the “lysine incorporation into protein per 100 mg” value is 1,309 CPM/100 mg and 1,470 CPM/100 mg; the “lysine incorporation into protein per flask” value was 2,575 CPM/FLASK and 2,925 CPM/FLASK.
As for `COc1ccc2c3c(ccc2c1)C1=NCCC1(C)CC3` (centres unmarked) [Compound 5d, 1,10,11,11a-tetrahydro-7-methoxy-11a-methyl-2H-naphth[1,2-g]indole], in [4] (1 μg/ml), the “growth rate versus control” value was “same growth rate as the control”. Also, the “growth inhibition at 20 μg/ml” value in data set [4] (20 μg/ml) is reported as “depressed the growth rate only slightly over the rate observed with 10 μg/ml”. In [4] (Mus musculus, 96 h, 10 μg/ml, fourth day, read-out: reduction in growth as compared to the control), the inhibition at 10 µg/mL was found to be 30%. Besides, the minimal effective concentration in data set [4] (Mus musculus, L-M cells, 10 μg/ml or greater, read-out: concentration at which growth was inhibited) was ≥ 10 µg/mL. Moreover, in data set [5], the minimal effective concentration was ≥ 10 µg/mL. Moreover, the “effect on the relative plating efficiency” value in data set [6] (1 μg/ml) is “little effect”. Also, the “inhibition of growth compared with control culture” value in [6] (10 and 20 μg/ml) is on record as “only a very slight inhibition of growth”. This compound showed an activity at 1 µg/mL in data set [6] (Homo sapiens, KB, 168 h, 1 μg/ml) of 97%. This compound showed an activity at 10 µg/mL in data set [6] (Homo sapiens, KB, 168 h, 10 μg/ml) of 82%. The compound also had an activity at 20 µg/mL in data set [6] (Homo sapiens, KB, 168 h, 20 μg/ml) of 79%. In addition, the “inhibition pattern from incubated medium versus simultaneous addition” value in data set [7] (20 μg/ml, medium pre-incubated 37° C) is “identical”. Also, the “detoxification by auto-oxidation or enzymatic (serum) processes in culture medium” value in [7] (37° C) is “does not occur”. Besides, in [8] (24 h, 1 hour in substrate), the “Relative acid phosphatase staining” value is “none and did not stain”. The “Relative acid phosphatase staining” value in data set [8] (24 h, 2 hours in substrate) is reported as “light”. Moreover, the “Relative acid phosphatase staining” value in data set [8] (24 h, 3 hours in substrate) is on record as “medium”. Further, the “staining reaction versus control” value in [8] (24 h, all three substrate incubation times) was “identical staining reactions”. Besides, the “staining intensity versus untreated cells” value in data set [8] (cells treated for 2 hours) was “indistinguishable from untreated cells”. Further, in [1], the “Body Weight” value was 32.3 g, the “Mg Testes Per g Body Wt.” value was determined as 6.32 Mg per g, the “Seminal Vesicle weight” value came to 67.7 mg and the “Testes Paired weight” value was found to be 201.6 mg. Also, in data set [2], the AVERAGE glucose oxidation is given as 12,140 CPM/100 mg TISSUE; the “depression of glucose oxidation in vitro” value was “depressed glucose oxidation in vitro more than compounds 4 c and 11b”; the “GLUCOSE OXIDATION per 100 mg” value was 16,081 CPM/100 mg and 8,200 CPM/100 mg; the “GLUCOSE OXIDATION per flask” value was 32,194 CPM/FLASK and 16,539 CPM/FLASK. In addition, the “% DEVIATION FROM CONTROL, glucose oxidation” value in [2] is “+17.4%”. Besides, in data set [3], the “AVERAGE OF TWO FLASK lysine incorporation” value was 1,565 CPM/100 mg tissue; the “protein synthesis” value was “depress protein synthesis”; the “lysine incorporation into protein per 100 mg” value is 1,585 CPM/100 mg and 1,546 CPM/100 mg; the “lysine incorporation into protein per flask” value is 3,225 CPM/FLASK and 3,125 CPM/FLASK.
As to `COc1ccc2c3c(ccc2c1)-c1[nH]ncc1CC3` [Compound 11b, 10,11-Dihydro-7-methoxy-3H-naphth[1,2-g]indazole], in data set [1], the “Body Weight” value amounted to 34.0 g, the “Mg Testes Per g Body Wt.” value is 6.67 Mg per g, the “Seminal Vesicle weight” value is listed as 88.7 mg and the “Testes Paired weight” value turned out to be 229.0 mg. For the same compound, in [2], the AVERAGE glucose oxidation is recorded as 9,550 CPM/100 mg TISSUE; the “depression of glucose oxidation in vitro” value is on record as “comparable to saline”; the “GLUCOSE OXIDATION per 100 mg” value is 11,590 CPM/100 mg and 7,510 CPM/100 mg; the “GLUCOSE OXIDATION per flask” value was 23,529 CPM/FLASK and 15,382 CPM/FLASK. Also, in data set [3], the “AVERAGE OF TWO FLASK lysine incorporation” value was 1,155 CPM/100 mg tissue; the “protein synthesis” value is recorded as “depress protein synthesis”; the “lysine incorporation into protein per 100 mg” value was 1,194 CPM/100 mg and 1,116 CPM/100 mg; the “lysine incorporation into protein per flask” value was 2,325 CPM/FLASK and 2,225 CPM/FLASK.
Take `CC1(C)S[C@@H]2[C@H](NC(=O)Cc3ccccc3)C(=O)N2[C@H]1C(=O)O` [penicillin, reference compound]: in data set [9], the “inhibition of growth, tested separately” value is recorded as “very slight inhibition of growth”.
